Laboratory results: patent US12662473B2, “Inhibitors for programmed cell necrosis and preparation method therefor and use thereof” (SHANGHAI INSTITUTE OF ORGANIC CHEMISTRY, CHINESE ACADEMY OF …, priority 2019, dated 2026)
Where two headings read alike, the source gives them in different places.

Columns and labels:
L929 cells = experiment: TNF-induced programmed cell necrosis inhibition, Cell Titer-Glo viability; type: cell-based, mouse; settings: read-out: EC50 inhibitory activity on programmed cell necrosis
Excerpt: (§1) The adopted biological assay protocol was: the programmed necroptosis effect of compounds on TNF-induced in FADD (Fas-Associated Death Domain) deficient Jurkat cells and L929 cells.
(§2) In order to verify the inhibitory effect of the compounds of the present invention on programmed cell necrosis at the cellular level, cell types closely related to the RIP1 pathway, namely FADD deficient Jurkat cells (human peripheral blood leukemia T cell line) and L929 cells, were selected. Two different stimulation methods were used: tumor necrosis factor (TNFα) used alone, or TNFα used in combination with mitochondria-derived cysteine aspartate activator (SMAC). Cells viability was calculated by detecting chemiluminescence values, and the biological activity of the compound for inhibiting programmed cell necrosis can be obtained.
(§3) Methods: FADD deficient Jurkat cells: FADD deficient Jurkat cells (human peripheral blood leukemia T cell line) were cultured in vitro. After growing to the logarithmic growth phase, the cells were collected, centrifuged at 1000 rpm for 5 min, the supernatant was discarded, and the cell concentration was adjusted to 2.5×10^5/mL. Cells were seeded into 384-well plates, 40 μl per well. 5 μL of Smac (50 nM) diluted in cell culture medium and 5 μL of each compound were added to the corresponding wells. After pretreatment at 37° C. for 1 h, 5 μL of TNFα (50 ng/mL) diluted in cell culture medium was added to each well of the stimulation group, and 5 μL of the culture medium was added to the control group. The plate was cultured in a cell incubator (37° C., 5% CO2) for 14 h, and 15 μl of Cell Titer-Glo solution was added to each well, then incubated for 30 min at room temperature, and intracellular ATP level was measured by detecting luminescence. The unstimulated DMSO control wells were taken as 100% cell viability. L929 cells: The L929 cells (mouse fibroblasts) were cultured in vitro, digested and diluted to 6.25×10^4/ml, and the cells were seeded into 384-well plates, 40 μl per well. The plate was placed in a cell incubator (37° C., 5% CO2) for 12 hours. 5 μL of Smac (500 nM) diluted in cell culture medium and 5 μL of each compound were added to the corresponding wells. After pretreatment at 37° C. for 1 h, 5 μL of TNFα (500 ng/mL) diluted in cell culture medium was added to each well of the stimulation group, and 5 μL of the culture medium was added to the control group. After the plate was cultured for 14 h in a cell incubator (37° C., 5% CO2), 15 μl of Cell Titer-Glo solution was added to each well. The plate was incubated at room temperature for 30 min, and intracellular ATP level was measured by detecting luminescence. The unstimulated DMSO control wells were taken as 100% cell viability. EC50 values of the compounds were calculated using Prism Graphpad statistical software.
L929 cells: The L929 cells (mouse fibroblasts) were cultured in vitro, digested and diluted to 6.25×10^4/ml, and the cells were seeded into 384-well plates, 40 μl per well. The plate was placed in a cell incubator (37° C., 5% CO2) for 12 hours. 5 μL of Smac (500 nM) diluted in cell culture medium and 5 μL of each compound were added to the corresponding wells. After pretreatment at 37° C. for 1 h, 5 μL of TNFα (500 ng/mL) diluted in cell culture medium was added to each well of the stimulation group, and 5 μL of the culture medium was added to the control group. After the plate was cultured for 14 h in a cell incubator (37° C., 5% CO2), and 15 μl of Cell Titer-Glo solution was added to each well, then incubated at room temperature for 30 min, and intracellular ATP level was measured by detecting luminescence. The unstimulated DMSO control wells were taken as 100% cell viability.

FADD−/− Jurkat cells = experiment: as above; type: cell-based
Excerpt: as §1, §2, §3
FADD deficient Jurkat cells: FADD deficient Jurkat cells (human peripheral blood leukemia T cell line) were cultured in vitro. After growing to the logarithmic growth phase, the cells were collected, centrifuged at 1000 rpm for 5 min, the supernatant was discarded, and the cell concentration was adjusted to 2.5×10^5/mL. Cells were seeded into 384-well plates, 40 μl per well. 5 μL of Smac (50 nM) diluted in cell culture medium and 5 μL of each compound were added to the corresponding wells. After pretreatment at 37° C. for 1 h, 5 μL of TNFα (50 ng/mL) diluted in cell culture medium was added to each well of the stimulation group, and 5 μL of the culture medium was added to the control group. After the plate was cultured in a cell incubator (37° C., 5% CO2) for 14 h, 15 μl of Cell Titer-Glo solution was added to each well. The mixture was incubated for 30 min at room temperature, and intracellular ATP level was measured by detecting luminescence. The unstimulated DMSO control wells were taken as 100% cell viability.

[1] = Mus musculus, L929, 14 h, L929 cells (mouse), TNFa + SM164
[2] = Mus musculus, L929, L929 cells (mouse), TNFa
[3] = Homo sapiens, Jurkat, 14 h, TNFa + SM164, read-out: EC50 inhibitory activity on programmed cell necrosis
[4] = Homo sapiens, Jurkat, TNFa, read-out: EC50 inhibitory activity on programmed cell necrosis
[5] = FADD−/− Jurkat cells (human), TNFa + SM164, read-out: EC50 inhibitory activity on programmed cell necrosis
[6] = FADD−/− Jurkat cells (human), TNFa, read-out: EC50 inhibitory activity on programmed cell necrosis

Compound	EC50 (L929 cells; [1]) [µM]	EC50 (L929 cells; [2]) [µM]	EC50 (FADD−/− Jurkat cells; [3]) [µM]	EC50 (FADD−/− Jurkat cells; [4]) [µM]	EC50 (L929 cells; L929 cells (mouse), TNFa) [µM]	EC50 (FADD−/− Jurkat cells; [5]) [µM]	EC50 (FADD−/− Jurkat cells; [6]) [µM]	EC50 (L929 cells; L929 cells (mouse), TNFa + SM164) [µM]	EC50 (L929 cells; Mus musculus, L929, L929 cells (mouse), TNFa + SM164) [µM]
Cc1noc([C@@H]2CCCN2C(=O)C(C)(C)Oc2ccc3ccccc3c2)n1 [QY-3-28]	4.08	0.878	> 10	5.55					
CC(C)(Oc1ccc(Cl)cc1)C(=O)N1CCCC1c1ccccc1 (centres unmarked) [QY-3-29]	0.157	0.047	0.664	0.035					
Cc1noc([C@@H]2CCCN2C(=O)C2(Oc3ccc(Cl)cc3)CC2)n1 [QY-3-35]	> 10	160	> 10	10.5					
Cc1noc([C@@H]2CCCN2C(=O)C(C)(C)Sc2ccc(Cl)cc2)n1 [QY-3-36]	9.4	2.25	8.36	0.983					
Cc1cccc(C2CCCN2C(=O)C(C)(C)Oc2ccc(Cl)cc2)c1 (centres unmarked) [QY-3-39]	1.48	0.386	5.28	0.712					
Cc1noc([C@@H]2CCCN2C(=O)C2(Oc3ccc(Cl)cc3)CCCC2)n1 [QY-3-46]	> 10	2.01	5.83	0.789					
CCN(CC)Cc1noc([C@@H]2CCCN2C(=O)C(C)(C)Oc2ccc(Cl)cc2)n1 [QY-3-51]	> 10	> 10	> 10	59.2					
CN(C)C(=O)c1noc([C@@H]2CCCN2C(=O)C(C)(C)Oc2ccc(Cl)cc2)n1 [QY-3-65]	> 10	> 10	> 10	> 10					
Cc1noc([C@@H]2CCCN2C(=O)C(C)(C)Oc2ccc(Cl)cc2Cl)n1 [QY-3-81]	2.72	0.704	1.96	0.326					
Cc1noc([C@@H]2CCCN2C(=O)C(C)(C)N(C)c2ccc(Cl)cc2)n1 [QY-3-86]	> 10	> 10	8.68	13.5					
Cc1noc([C@@H]2CCCN2C(=O)C(C)(C)Oc2ccc(Cl)cc2C)n1 [QY-3-94]	5.23				1.41	2.96	0.516		
COc1cc(Cl)ccc1OC(C)(C)C(=O)N1CCC[C@H]1c1nc(C)no1 [QY-3-95]	1	0.135	1.14	0.102					
Cc1noc([C@@H]2CCCN2C(=O)C(C)(C)Oc2ccc(Cl)cc2C)n1 [QY-3-96]					> 10	9.22	2.79	> 10	
CC(C)(Oc1ccc(Cl)cc1F)C(=O)N1CCCC1c1ccccc1 (centres unmarked) [QY-3-99, 2-(4-Chloro-2-fluorophenoxy)-2-methyl-1-(2-phenylpyrrolidin-1-yl)propan-1-one]		0.062	0.444	0.061					0.244
Cc1noc([C@@H]2CCCN2C(=O)C(C)(C)Oc2cc(Cl)c(Cl)cc2Cl)n1 [QY-4-1]	> 10	12.7	> 10	10.3					
Cc1noc([C@@H]2CCCN2C(=O)C(C)(C)Oc2c(F)cc(Cl)cc2F)n1 [QY-4-2]	16.9	3.95	7.73	1.06					
CC(C)(Oc1ccc(Cl)cc1)C(=O)N1CCCC1c1ccc(Cl)cc1 (centres unmarked) [QY-4-6]	0.292	0.065	0.776	0.116					
CC(C)(Oc1ccc(Cl)cc1)C(=O)N1CCCC1c1ccc(F)cc1 (centres unmarked) [QY-4-7]	0.652	0.111	0.825	0.126					
Cn1nnnc1[C@@H]1CCCN1C(=O)C(C)(C)Oc1ccc(Cl)cc1 [QY-4-11]	> 10	> 10	1.71	0.061					
Cn1nnc([C@@H]2CCCN2C(=O)C(C)(C)Oc2ccc(Cl)cc2)n1 [QY-4-12]	9.53	1.61	5.89	0.607					
Cc1noc([C@@H]2CCCN2C(=O)C(C)(C)Oc2c(F)cc(F)cc2F)n1 [QY-4-14]	> 10	5.89	40.6	18					
Cc1ccccc1C1CCCN1C(=O)C(C)(C)Oc1ccc(Cl)cc1 (centres unmarked) [QY-4-27]	> 10	3.67	> 10	2.9					
CC(C)(Oc1ccc(Cl)cc1)C(=O)N1CCCC1c1ccccc1Cl (centres unmarked) [QY-4-32]	1.65	0.52	2.68	0.712					
CC(C)(Oc1ccc(Cl)cc1)C(=O)N1CCCC1c1cccc(Cl)c1 (centres unmarked) [QY-4-35]	> 10	3.7	> 10	4.09					
CC(C)(Oc1ccc(Cl)cc1)C(=O)N1CCCC1c1cccc(F)c1 (centres unmarked) [QY-4-39]	0.675	0.189	1.19	0.274					
Cc1ccc(C2CCCN2C(=O)C(C)(C)Oc2ccc(Cl)cc2C#N)cc1 (centres unmarked) [QY-4-66]	1.28	0.392	2.19	0.544					
